Data: EP1510220B1 (priority 1993, dated 1994)

Tests used:
[1] = tested on: Vascular smooth muscle cells (BO54); experiment: Scratch-migration assay with morphological toxicity grading; assay type: cell-based, baboon; parameters: key to Migration Grade in the Cleared Area of the Well / Migration Grade in an Undisturbed Region of the Well: - = no migration; +1 = minimal; +2 = mild; +3 = moderate; +4 = marked (maximum density; limit of cell contact inhibition) migration
Experimental: Scratch assays to determine the extent of smooth muscle cell migration inhibition by cytochalasin B were performed in accordance with the following protocol:
Vascular smooth muscle cells (BO54) were derived from explants of baboon aortic smooth muscle, as described in Example 1. The cells were grown in flat bottom, six well tissue culture plates, which hold about 5 ml of medium. The vascular smooth muscle cells were plated at 200,000 cells/well and placed at 37°C in a humidified 5% CO2 incubator for 18 hours. The wells were then scratched with a sterile portion of a single edge razor blade that was held by clamp or pliers and was brought aseptically into contact with the bottom of the well at a 90° angle. The cells from a small area along the scratch were removed by a sterile cotton tipped applicator while the blade was in contact with the bottom of the well. After incubation, the presence of cells in the "scratched" area is indicative of cell migration across the scratch line.
Briefly, a stock solution of cytochalasin B (Sigma Chemical Co.) in dimethyl sulfoxide (DMSO) at 1 mg/ml was prepared. Test dilutions of cytochalasin B or control medium were added. Each experiment included two sets of plates: • A set: Test agent exposure for 1, 3, 6, 8 and 10 days only; and • B set: Test agent exposure for 1, 3, 6, 8 and 10 days, followed by a seven day recovery time with control medium. Both sets of plates were fixed (10% formalin in PBS) and stained (0.02% crystal violet) at the end of the timed exposures. Test concentrations for cytochalasin B were 1, 0.1 and 0.01 µg/ml, and a negative medium control was included. Fresh medium and drug were supplied 3 times per week.
In this Table, "M" indicates Migration Grade, wherein - = no migration; +1 = minimal; +2 = mild; +3 = moderate; and +4 = marked (maximum density; limit of cell contact inhibition) migration of vascular smooth muscle cells into the cleared area adjacent to the scratch. In this Table, "T" denotes a morphological Toxicity Grade, wherein - = no toxicity; +1 = minimal; +2 = mild; +3 = moderate; and +4 = marked toxicity. The migration results are expressed as "Grade in the Cleared Area of the Well / Grade in an Undisturbed Region of the Well." The toxicity values represent a grade for all cells in each well.

[2] = tested on: Rat vascular smooth muscle cells; experiment: Proliferation of rat vascular smooth muscle cells by cell counting; assay type: cell-based
Experimental: Cell culture, DNA synthesis assay and cell counting. Rat vascular smooth muscle cells were cultured after enzymatic dispersion of the aortic media from 12-17 week old Wistar rats as described in Grainger et al., Biochem. J., 277: 145-151, 1991. When the cells reached confluence (after about 6 days) the cells were released with trypsin/EDTA (available from Gibco) and diluted 1:2 in Dulbecco's modification of Eagle's medium (DMEM; available from ICN/Flow) supplemented with 100 U/ml penicillin and 10% fetal calf serum (FCS). The cells were then replated on tissue culture plastic (available from ICN/Flow) at approximately 1 x 10^4 cells/cm^2. The cells were subcultured repeatedly in this way when confluence was attained (about every 4 days), and the cells were used between passages 6 and 12.
Cells were prepared for counting by hemocytometer from triplicate culture dishes as described in Grainger et al., Biochem. J., 277:145-151, 1991. Cells were also counted by direct microscopic observation of gridded culture dishes. The grids were scored into the plastic on the inner surface, so that the cells could not migrate into or out of the area being counted during the experiment. Cells in each of four squares in two separate wells were counted at each time point. All cell counting experiments were repeated on at least three separate cultures.
A stock solution of tamoxifen (5 mM; available from ICI Pharmaceuticals) was made up in 10% ethanol (EtOH) and diluted in DMEM and 10% FCS to give the final concentration. The effects of each tamoxifen concentration were compared with the effects observed in control wells containing the same final concentration of the ethanol vehicle. Recombinant TGF-beta (available from Amersham International) was dissolved in 25 mM Tris/Cl to give a 5 microgram/ml stock solution and sterile filtered through a Spinnex Tube (such as a Centrex Disposable Microfilter Unit available from Rainin Instrument Company, Inc., Woburn, MA). Neutralizing antiserum to TGF-beta (BDA19; available from R & D Systems) was reconstituted in sterile MilliQ water (available from Millipore Corporation, Bedford, MA). At 10 micrograms/ml, this antibody completely abolished the activity of 10 ng/ml recombinant TGF-beta on subcultured (8th passage) vascular smooth muscle cells.

[3] = 7-day Recovery Post Exposure, 0.01 µg/mL, Day 1
[4] = 7-day Recovery Post Exposure, 0.01 µg/mL, Day 3
[5] = 7-day Recovery Post Exposure, 0.01 µg/mL, Day 6
[6] = 7-day Recovery Post Exposure, 0.01 µg/mL, Day 8
[7] = 7-day Recovery Post Exposure, 0.01 µg/mL, Day 10
[8] = 7-day Recovery Post Exposure, 0.1 µg/mL, Day 1
[9] = 7-day Recovery Post Exposure, 0.1 µg/mL, Day 3
[10] = 7-day Recovery Post Exposure, 0.1 µg/mL, Day 6
[11] = 7-day Recovery Post Exposure, 0.1 µg/mL, Day 8
[12] = 7-day Recovery Post Exposure, 0.1 µg/mL, Day 10
[13] = 7-day Recovery Post Exposure, 1.0 µg/mL, Day 1
[14] = 7-day Recovery Post Exposure, 1.0 µg/mL, Day 3
[15] = 7-day Recovery Post Exposure, 1.0 µg/mL, Day 6
[16] = 7-day Recovery Post Exposure, 1.0 µg/mL, Day 8
[17] = 7-day Recovery Post Exposure, 1.0 µg/mL, Day 10
[18] = Continuous Exposure, 0.01 µg/mL, Day 1
[19] = Continuous Exposure, 0.01 µg/mL, Day 3
[20] = Continuous Exposure, 0.01 µg/mL, Day 6
[21] = Continuous Exposure, 0.01 µg/mL, Day 8
[22] = Continuous Exposure, 0.01 µg/mL, Day 10
[23] = Continuous Exposure, 0.1 µg/mL, Day 1
[24] = Continuous Exposure, 0.1 µg/mL, Day 3
[25] = Continuous Exposure, 0.1 µg/mL, Day 6
[26] = Continuous Exposure, 0.1 µg/mL, Day 8
[27] = Continuous Exposure, 0.1 µg/mL, Day 10
[28] = Continuous Exposure, 1.0 µg/mL, Day 1
[29] = Continuous Exposure, 1.0 µg/mL, Day 3
[30] = Continuous Exposure, 1.0 µg/mL, Day 6
[31] = Continuous Exposure, 1.0 µg/mL, Day 8
[32] = Continuous Exposure, 1.0 µg/mL, Day 10

cytochalasin B
ability to migrate following removal of the therapeutic agent (grade) ([1]; 0.1 µg/ml, even after 10 days of continuous exposure): +3 to +4
migration of vascular smooth muscle cells into the cleared area adjacent to the scratch (grade) ([1]; 0.1 µg/ml, summary of Table 1): +1 to +2
Migration Grade in an Undisturbed Region of the Well [1, 3]: +4
Migration Grade in the Cleared Area of the Well [1, 3]: +3
Migration Grade in an Undisturbed Region of the Well [1, 4]: +4
Migration Grade in the Cleared Area of the Well [1, 4]: +3
Migration Grade in an Undisturbed Region of the Well [1, 5]: +4/+4
Migration Grade in the Cleared Area of the Well [1, 5]: +4/+4
Migration Grade in an Undisturbed Region of the Well [1, 6]: +4/+4
Migration Grade in the Cleared Area of the Well [1, 6]: +4/+4
Migration Grade in an Undisturbed Region of the Well [1, 7]: +4/+4
Migration Grade in the Cleared Area of the Well [1, 7]: +4/+4
Migration Grade in an Undisturbed Region of the Well [1, 8]: +4
Migration Grade in the Cleared Area of the Well [1, 8]: +3
Migration Grade in an Undisturbed Region of the Well [1, 9]: +4
Migration Grade in the Cleared Area of the Well [1, 9]: +3
Migration Grade in an Undisturbed Region of the Well [1, 10]: +4
Migration Grade in the Cleared Area of the Well [1, 10]: +3
Migration Grade in an Undisturbed Region of the Well [1, 11]: +4
Migration Grade in the Cleared Area of the Well [1, 11]: +3
Migration Grade in an Undisturbed Region of the Well [1, 12]: +4/+4
Migration Grade in the Cleared Area of the Well [1, 12]: +4/+4
Migration Grade in an Undisturbed Region of the Well [1, 13]: +3
Migration Grade in the Cleared Area of the Well [1, 13]: +2
Migration Grade in an Undisturbed Region of the Well [1, 14]: +3
Migration Grade in the Cleared Area of the Well [1, 14]: +2
Migration Grade in an Undisturbed Region of the Well [1, 15]: +3
Migration Grade in the Cleared Area of the Well [1, 15]: +2
Migration Grade in an Undisturbed Region of the Well [1, 16]: +3
Migration Grade in the Cleared Area of the Well [1, 16]: +2
Migration Grade in an Undisturbed Region of the Well [1, 17]: +3
Migration Grade in the Cleared Area of the Well [1, 17]: +2
Migration Grade in an Undisturbed Region of the Well [1, 18]: +3
Migration Grade in the Cleared Area of the Well [1, 18]: +1
Migration Grade in an Undisturbed Region of the Well [1, 19]: +4
Migration Grade in the Cleared Area of the Well [1, 19]: +3
Migration Grade in an Undisturbed Region of the Well [1, 20]: +4
Migration Grade in the Cleared Area of the Well [1, 20]: +3
Migration Grade in an Undisturbed Region of the Well [1, 21]: +4
Migration Grade in the Cleared Area of the Well [1, 21]: +3
Migration Grade in an Undisturbed Region of the Well [1, 22]: +4
Migration Grade in the Cleared Area of the Well [1, 22]: +3
Migration Grade in an Undisturbed Region of the Well [1, 23]: +3
Migration Grade in the Cleared Area of the Well [1, 23]: +1
Migration Grade in an Undisturbed Region of the Well [1, 24]: +4
Migration Grade in the Cleared Area of the Well [1, 24]: +1
Migration Grade in an Undisturbed Region of the Well [1, 25]: +4
Migration Grade in the Cleared Area of the Well [1, 25]: +2
Migration Grade in an Undisturbed Region of the Well [1, 26]: +4
Migration Grade in the Cleared Area of the Well [1, 26]: +2
Migration Grade in an Undisturbed Region of the Well [1, 27]: +4
Migration Grade in the Cleared Area of the Well [1, 27]: +2
Migration Grade in an Undisturbed Region of the Well [1, 28]: +2
Migration Grade in the Cleared Area of the Well [1, 28]: -
Migration Grade in an Undisturbed Region of the Well [1, 29]: +2
Migration Grade in the Cleared Area of the Well [1, 29]: -
Migration Grade in an Undisturbed Region of the Well [1, 30]: +2
Migration Grade in the Cleared Area of the Well [1, 30]: -
Migration Grade in an Undisturbed Region of the Well [1, 31]: +2
Migration Grade in the Cleared Area of the Well [1, 31]: -
Migration Grade in an Undisturbed Region of the Well [1, 32]: +2
Migration Grade in the Cleared Area of the Well [1, 32]: -

CC/C(=C(\c1ccccc1)c1ccc(OCCN(C)C)cc1)c1ccccc1 [tamoxifen, trans-2-[4-(1,2-diphenyl-1-butenyl)phenoxy]-N,N-dimethylethylamine]
cells that had divided by 64 hours ([2]; 33 micromolar): more than 90%
time taken for 50% of the cells to divide after stimulation by serum ([2]; 33 micromolar, n=3, vehicle 35 +/-3 hours): 54 ± 2 h
onset of increase in cell number after serum stimulation ([2]; 33 micromolar, time lapse photomicroscopy): no significant increase in cell number in the presence of tamoxifen until after 48 hours
rate of proliferation ([2]; 50 micromolar with 10 micrograms/ml neutralizing antiserum against TGF-beta, 10% FCS): proliferated at the same rate as control cells
reduction of the increase in cell number ([2]; 50 micromolar, 96 hours following the addition of serum, n=3, 5760 min, 50 µM): 66% +/-5.2
inhibition at 50 µM ([2]; Rattus norvegicus, 50 micromolar, 96 hours following the addition of serum, n=3, read-out: reduction of the increase in cell number): 66%
IC (maximal) ([2]; Rattus norvegicus, DMEM + 10% FCS, read-out: concentrations giving maximal inhibition of the rate of proliferation): > 33 µM
IC50 ([2]; rat ED VSMC, read-out: half-maximal inhibition of proliferation): 2 to 5 µM
